# Counter-ions that a name gives are not always drawn.
# Tests used:
# saliva RNases = assay: RNase activity assay: cell line RNA incubated with treated saliva, read on Agilent TapeStation; type: biochemical, human; design: key: Pass (green) indicating sufficient RNase inactivation; Partial Pass (yellow) indicating partial RNase inactivation; Fail (red) indicating incomplete RNase inactivation
# Experimental: FIG. 27. Example of saliva RNase activity assays assayed on TapeStation High Sensitivity RNA ScreenTapes (5067; Agilent). Results from three independent assays are shown. Lanes 1-3 (left to right) are experimental controls including 500 μg RNA in RNase free water, untreated saliva without added cell line RNA, and untreated saliva incubated with cell line RNA. Lanes labeled “Incomplete RNase Inactivation” contain no ribosomal RNA bands, indicating RNase activity is present. Lanes labeled “Sufficient RNase Inactivation” contain sharp ribosomal bands (similar to RNA in water), indicating RNases have been inactivated. gDNA=genomic DNA.
# (§1) To screen for chemical and protein-based reagents that inhibit saliva RNases, we developed an RNase activity assay in which purified cell line RNA was incubated for 30 min at 37° C. with saliva samples after treatment with potential reagents for RNase inhibition (FIG. 2.5.3). After incubation, RNA was purified and analyzed on an Agilent TapeStation. Sharpness of the eukaryotic ribosomal RNA bands (28S and 18S) were compared to determine RNase activity in the presence of various inhibitors. In addition, the Agilent TapeStation calculates an RNA Integrity Score (RIN) as a measure of RNA quality (RIN of 10-fully intact RNA, RIN of 1=fully degraded RNA), however contaminating nucleic acid (e.g., 16S and 23S rRNA from bacteria) interferes with this calculation.
# as §1, with “10=fully” for “10-fully”, “calculation. In total, 54 unique reagents, concentrations, and buffer formulations were tested for their ability to inactivate RNases.” for “calculation.”
# RT-RPA reactions = assay: RT-RPA interference (compatibility) testing of lysis and RNase inhibitor reagents, agarose gel; type: biochemical; design: key: Pass (green) indicates that reagents did not interfere with RT-RPA; Partial Pass: Partial pass (yellow) indicates that reagents had partial interference in RT-RPA; Fail (red) indicates reagents completely interfered with RT-RPA reactions
# Experimental: FIG. 28. Reagent interference testing in RT-RPA. Lysis and RNase inhibitor reagents tested in RT-RPA using cDNA and RNA templates. RT-RPA reactions were prepared with varying concentrations of reagents, as labeled above (final concentrations in a 20 μl RT-RPA reaction are reported). Amplification products were run on a 2% agarose gel and band intensities were compared to control (No added reagent) reactions. Reactions labeled in red contain no reverse transcriptase. The expected size of the CXCL8 amplicon is indicated to the left of the gel. GuHCI=Guanidine hydrochloride, Triton=Triton X-100.
# Reagents under consideration for the device were tested for compatibility with RT-RPA at the concentrations expected to be required for lysis. To test for interference, lysis or RNase inhibitor reagents were spiked into RT-RPA reactions with purified cell line RNA or cDNA as a template. Reactions were analyzed by agarose gel for the presence or absence of amplified products. […]
# RT-RPA reaction = assay: RT-RPA efficiency in the presence of Buffer 20 and Buffer 21; type: biochemical; settings: 100 mM
# Experimental: FIG. 7. Evaluation of optimized sample treatment and lysis buffer components. (A) RT-RPA efficiency in the presence of Buffer 20 and Buffer 21, using cell line RNA as (+) template and (−) no template control. (B) Optimized early/pre-infection diagnostic sample treatment and lysis tested on 5 individuals. −RT=no reverse transcriptase was included in the RT-RPA reaction, +RT=Superscript IV was added to the RPA reaction at a final concentration of 1 U/μl.
# We therefore modified the lysis buffer formulation to Buffer 21 (5 mM TCEP-HCl, 7.5% Tween-20, 0.00167% Digitonin), which removed the guanidine hydrochloride and RNase Inhibitor. […] The present inventors lyophilized Buffer 21 into the selected lysis pad material and processed saliva from five donors through the device (FIG. 7B). This processing included expression of the sample from a collection pad, which pushed the sample through the lysis pad embedded with Buffer 21 and 4 U/μl of mRI, followed by the 10 μm filter, 100 mg of Chelex-100, and 1 μm filter. The resulting sample was used to reconstitute RPA reagents (Twist rehydration buffer and Twist enzymes), and reverse transcriptase and modified RPA primers were added to the reaction.
# [1] = tested on: primer dimers in multiplexed RT-RPA; assay: Betaine as additive in multiplexed RT-RPA; type: biochemical; settings: preliminary experiments
# Text: A challenge of multiplexed RT-RPA is an increased tendency to form primer dimers that impact the readout on a lateral flow strip. We have explored the use of betaine as an additive to reduce the occurrence of primer dimers. Betaine can prevent the formation of primer dimers in isothermal amplification by effectively lowering the melting temperature of an oligo sequence. […] Thus, betaine may be an effective additive to reduce primer dimers in RT-RPA reactions in certain embodiments.
# [2] = 100 mM final in RT-RPA reaction
molecule,measurement,setting,value
O[C@@H](CS)[C@@H](O)CS [DTT],"Inactivation of saliva RNases, Result",saliva RNases; 10 mM,Fail
O=C(O)CN(CCN(CC(=O)O)CC(=O)O)CC(=O)O [EDTA],"Compatibility in RT-RPA, Result",RT-RPA reactions; 2 mM final in RT-RPA reaction,Pass
same,"Compatibility in RT-RPA, Result",RT-RPA reactions; 6 mM final in RT-RPA reaction,Partial Pass
same,"Compatibility in RT-RPA, Result",RT-RPA reactions; 18 mM final in RT-RPA reaction,Fail
N#CS.N=C(N)N [GTC],"Compatibility in RT-RPA, Result",RT-RPA reactions; [2],Fail
"Cl.N=C(N)N [GuHCl, Guanidine hydrochloride]","Compatibility in RT-RPA, Result",RT-RPA reactions; [2],Pass
same,"Compatibility in RT-RPA, Result",RT-RPA reactions; 200 mM final in RT-RPA reaction,Fail
same,Effect on RT-RPA reaction efficiency,RT-RPA reaction,reduces the overall efficiency of the RT-RPA reaction
"Cl [HCl, Hydrochloric acid]","Compatibility in RT-RPA, Result",RT-RPA reactions; 5 mM final in RT-RPA reaction,Pass
"CCCCCCCCCCCCOS(=O)(=O)[O-].[Na+] [SDS, sodium dodecyl sulfate]","Compatibility in RT-RPA, Result",RT-RPA reactions; 0.005% final in RT-RPA reaction,Fail
Cl.O=C(O)CCP(CCC(=O)O)CCC(=O)O [TCEP-HCl],"Compatibility in RT-RPA, Result",RT-RPA reactions; 5 mM final in RT-RPA reaction,Partial Pass
same,"Compatibility in RT-RPA, Result",RT-RPA reactions; 10 mM final in RT-RPA reaction,Fail
same,"Inactivation of saliva RNases, Result",saliva RNases; 5 mM and 12.5 mM,Fail
same,"Inactivation of saliva RNases, Result",saliva RNases; 50 mM,Pass
O=C(O)CCP(CCC(=O)O)CCC(=O)O [TCEP-neutral],"Inactivation of saliva RNases, Result",saliva RNases; 5 mM and 50 mM,Fail
OCCS [beta-mercaptoethanol],"Inactivation of saliva RNases, Result",saliva RNases; 143 mM,Fail
C[N+](C)(C)CC(=O)O [betaine],Primer noise,[1],can reduce primer noise in multiplexed RT-RPA reactions
C[C@@H]1CC[C@@]2(OC1)O[C@H]1[C@@H](O)[C@H]3[C@@H]4CC[C@H]5C[C@@H](O[C@@H]6O[C@H](CO)[C@H](O[C@@H]7O[C@H](CO)[C@@H](O)[C@H](O[C@@H]8OC[C@@H](O)[C@H](O)[C@H]8O)[C@H]7O[C@@H]7O[C@H](CO)[C@H](O)[C@H](O[C@@H]8O[C@H](CO)[C@@H](O)[C@H](O)[C@H]8O)[C@H]7O)[C@H](O)[C@H]6O)[C@H](O)C[C@]5(C)[C@H]4CC[C@]3(C)[C@H]1[C@@H]2C [digitonin],"Compatibility in RT-RPA, Result",RT-RPA reactions; 1% final in RT-RPA reaction,Pass
CCCCCCCCCCCC(=O)N(C)CC(=O)[O-].[Na+] [sarkosyl],"Compatibility in RT-RPA, Result",RT-RPA reactions; 0.01% final in RT-RPA reaction,Partial Pass
same,"Compatibility in RT-RPA, Result",RT-RPA reactions; 0.1% final in RT-RPA reaction,Fail
IGEPAL,"Compatibility in RT-RPA, Result",RT-RPA reactions; 0.01%-0.25% final in RT-RPA reaction,Partial Pass
Triton X-100,"Compatibility in RT-RPA, Result",RT-RPA reactions; 1% final in RT-RPA reaction,Pass
same,"Compatibility in RT-RPA, Result",RT-RPA reactions; 5%-10% final in RT-RPA reaction,Partial Pass

# — patent US20260199902A1, “SYSTEM AND APPARATUS FOR THE HAND-HELD AMPLIFICATION AND DETECTION OF NUCLEIC ACIDS” (Darwin Biosciences, Inc., priority 2022, published 2026)
